The values below come from ChEMBL document CHEMBL1201862, “PubChem BioAssay data set” (2004).

Holding throughout (experiment): DTP human tumour cell line panel, 48 h
Experiment [1] concerns A549.
Experiment [2] has as its system COLO 205.
In experiment [3] the test system is EKVX.
Experiment [4] deals with HCC 2998.
Experiment [5] has as its system HT-29.
In experiment [6] the test system is K562.
For experiment [7], the system named is KM12.
The test system of experiment [8] is M14.
Experiment [9] concerns MCF7.
In experiment [10] the test system is MDA-N.
Experiment [11] concerns MOLT-4.
The subject of experiment [12] is NCI-H460.
The test system of experiment [13] is NCI/ADR-RES.
Experiment [14] relates to SF-268.
In experiment [15] the test system is SF-295.
The subject of experiment [16] is SK-MEL-2.
Experiment [17] relates to SK-MEL-5.
Experiment [18] relates to SN12C.
Experiment [19] concerns TK-10.
Experiment [20] deals with UO-31.

Where “and” joins values, the source holds several entries; their conditions need not be identical. Identical values can stand only once.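 Where inhibition never reached the appropriate level, the endpoint shown equals the highest concentration tested. Otherwise, values were interpolated linearly from a five-concentration, 48-hour dose response in 96-well plates. GI50 = concentration required for 50% inhibition of growth.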 Calls of active or inactive are those of the source. Rule as the data show it: active = GI50 up to about 1.1 µM and inactive = higher. A value given as a limit tells only on which side of the number the result lay.

What is called GI50 is the concentration giving 50% growth inhibition. As to `Cc1[nH]c(-c2ccccc2)c(-c2ccc(Cl)cc2)c1C(=O)ONC(=O)c1ccccc1`, the GI50 in [1] is 2.19 µM (inactive); in experiment [2], 5.93 µM (inactive); in experiment [3], 3.07 µM (inactive); in experiment [4] it was 3.32 µM (inactive); in experiment [5], 4.6 µM (inactive); in experiment [6], 2.65 µM (inactive). The GI50 was 7.24 µM (inactive) in experiment [7]; 4.55 µM (inactive) in experiment [8]; 11.9 µM (inactive) in experiment [9]; 2 µM (inactive) in [10]; 2.69 µM (inactive) in experiment [11]; 2.11 µM (inactive) in experiment [12]. The GI50 in experiment [13] was 3.23 µM (inactive); in experiment [14], 2.34 µM (inactive); in [15], 2.1 µM (inactive); in experiment [16] it was 2.9 µM (inactive); in experiment [17] it was 3.41 µM (inactive); in experiment [18], 2.25 µM (inactive). Besides, the GI50 is 2.81 µM (inactive) in experiment [19] and 0.113 µM (active) in experiment [20].

Take `N#Cc1c(-c2ccccc2)c(C#N)c(=S)n(C2OCC(O)C(O)C2O)c1N` (centres undefined): the GI50 in [1], in experiment [4], in experiment [5], in experiment [6], in experiment [7] and in experiment [8] was > 100 µM (inactive) each time. The GI50 in [9], in experiment [10], in experiment [11], in experiment [12], in experiment [13] and in experiment [14] was > 100 µM (inactive) in each case. Moreover, the GI50 in [15] is > 100 µM (inactive); in experiment [16], > 100 µM (inactive); in experiment [17] it was > 100 µM (inactive); in [18] it was > 100 µM (inactive); in [19], 30.8 µM (inactive) and 61.5 µM (inactive); in [20], > 100 µM (inactive).

In the case of `Cc1ccc2c(c1)CC1(Cc3cc(C)ccc3C1=O)C2=O`, the GI50 in [1], in experiment [3], in experiment [4], in experiment [5], in [6] and in experiment [8] was > 100 µM (inactive) throughout. Besides, the GI50 in experiment [9], in [10], in [11], in experiment [12], in experiment [13] and in experiment [14] was > 100 µM (inactive) throughout. The GI50 in experiment [15], in [16], in experiment [17], in [19] and in [20] was > 100 µM (inactive) in each case.

Regarding `COc1ccc(N2C(=O)/C(=C\c3cc(OC)c(OC)c(OC)c3)S(=O)(=O)C2c2ccccc2)cc1` (centres undefined), the GI50 in experiment [1] was 26.2 µM (inactive); in experiment [2], 4.39 µM (inactive); in experiment [4] it was 89.3 µM (inactive); in experiment [6], 12.7 µM (inactive); in experiment [7], 29.2 µM (inactive); in experiment [8], 19.4 µM (inactive). For the same molecule, the GI50 is 30.2 µM (inactive) in [9]; 13.9 µM (inactive) in experiment [10]; 28.5 µM (inactive) in experiment [11]; 47.6 µM (inactive) in [12]; 17.2 µM (inactive) in [13]; 52 µM (inactive) in [14]. Besides, the GI50 is 21.2 µM (inactive) in experiment [15]; 8.55 µM (inactive) in experiment [16]; 14.2 µM (inactive) in experiment [17]; > 100 µM (inactive) in experiment [18]; > 100 µM (inactive) in [19]; 14.8 µM (inactive) in [20].

In the case of `C/C=C/COc1cc(NC(=S)OC(C)C)ccc1Cl.C/C=C\COc1cc(NC(=S)OC(C)C)ccc1Cl`, the GI50 in [1] is 15.6 µM (inactive); in [2] it was 17.6 µM (inactive); in experiment [3], 12.6 µM (inactive); in [4], 16.1 µM (inactive); in [5] it was 15.3 µM (inactive); in experiment [7], 17.4 µM (inactive). For the same molecule, the GI50 is 24.2 µM (inactive) in experiment [8]; 19.8 µM (inactive) in experiment [9]; 16.1 µM (inactive) in [10]; 14.8 µM (inactive) in experiment [11]; 16 µM (inactive) in experiment [12]; 16 µM (inactive) in [13]. For the same molecule, the GI50 is 17.7 µM (inactive) in [14]; 20.2 µM (inactive) in experiment [15]; 13.6 µM (inactive) in experiment [16]; 16.2 µM (inactive) in experiment [17]; 14.2 µM (inactive) in [18]; 14.9 µM (inactive) in experiment [19]. The GI50 in experiment [20] is 12 µM (inactive).

`COC(=O)/C=C(\C)C(=O)N(C)c1ccccc1I`: the GI50 in experiment [1], in experiment [2], in experiment [3], in experiment [4], in [6] and in [7] was > 100 µM (inactive) in each case. For the same molecule, the GI50 in experiment [8], in experiment [9], in [10], in experiment [11], in experiment [12] and in experiment [13] was > 100 µM (inactive) throughout. The GI50 in [14], in experiment [15], in experiment [16], in [17], in [18] and in [20] was > 100 µM (inactive) in each case.

As for `CCOP(=O)(CCCC(O)CNc1cc(Cl)nc(N)n1)OCC` (centres undefined), the GI50 in [1], in experiment [2], in experiment [3], in experiment [4], in [5] and in [6] was > 100 µM (inactive) each time. Moreover, the GI50 in [7], in experiment [9], in experiment [10], in experiment [11], in experiment [12] and in [13] was > 100 µM (inactive) throughout. For the same molecule, the GI50 in experiment [14], in experiment [15], in [16], in experiment [17], in experiment [18] and in [19] was > 100 µM (inactive) each time. In addition, the GI50 in [20] was > 100 µM (inactive).

For `Cc1cc(/N=C/c2ccc(N(C)C)cc2)n(-c2ccccc2)n1`, the GI50 in [1] is 42.4 µM (inactive); in experiment [2] it was 24.8 µM (inactive); in experiment [3] it was 57.8 µM (inactive); in experiment [4] it was 20.1 µM (inactive); in experiment [5], 12.6 µM (inactive); in experiment [6] it was 44.6 µM (inactive). The GI50 is 16.7 µM (inactive) in experiment [7]; 49.2 µM (inactive) in [8]; 31 µM (inactive) in [9]; 5.86 µM (inactive) in experiment [10]; 42.6 µM (inactive) in experiment [11]; 23.9 µM (inactive) in experiment [12]. Further, the GI50 in experiment [13] is 24.7 µM (inactive); in experiment [14], 74.3 µM (inactive); in [15] it was 30.8 µM (inactive); in experiment [16], > 100 µM (inactive); in experiment [17] it was 40.2 µM (inactive); in experiment [18] it was 28.4 µM (inactive). Also, the GI50 was 46.8 µM (inactive) in experiment [19] and > 100 µM (inactive) in [20].

Take `CSc1nc(Br)nc2c1ncn2C1CC(Oc2ccc(C)cc2)C(COc2ccc(C)cc2)O1` (centres undefined): the GI50 in experiment [1], in experiment [2], in [3], in experiment [4], in [5] and in experiment [7] was > 100 µM (inactive) throughout. Besides, the GI50 in [8], in experiment [9], in [10], in experiment [11], in [12] and in experiment [13] was > 100 µM (inactive) in each case. The GI50 in experiment [14], in experiment [15], in experiment [16], in experiment [17], in [18] and in experiment [19] was > 100 µM (inactive) each time.

For the molecule `NC(=O)c1ccc(NS(=O)(=O)c2ccc(N)cc2)nc1`, the GI50 in [2], in [3], in [4], in [5], in experiment [6] and in experiment [7] was > 100 µM (inactive) in each case. The GI50 in [8], in experiment [9], in [10], in experiment [11], in experiment [12] and in experiment [13] was > 100 µM (inactive) in each case. Moreover, the GI50 in experiment [14], in [15], in experiment [16], in [17], in [18] and in experiment [19] was > 100 µM (inactive) each time. Also, in [20], the GI50 is > 100 µM (inactive).

For `NC1=NC(=O)[C@H](CSCc2ccccc2)N1C(=O)OCc1ccccc1`, the GI50 in [2], in experiment [3], in experiment [4], in experiment [5], in [6] and in experiment [7] was > 100 µM (inactive) throughout. The GI50 in experiment [9], in experiment [10], in experiment [11], in [12], in experiment [13] and in [14] was > 100 µM (inactive) each time. Further, the GI50 in [15], in experiment [16], in experiment [17], in experiment [18], in experiment [19] and in experiment [20] was > 100 µM (inactive) in each case.
